How the values were obtained:
Type in all cases: cell-based
[1] = molecular target: T1, β5c subunit of the 20S proteasome (Homo sapiens, UniProt P20618+P28074); test: Proteasome inhibitory activity, β5c subunit (Raji cells treated with compound, lysed, Suc-LLVY-AMC substrate); conditions: proteasome from Raji cells incubated with compound 4 h
T1 construct: The proteasome tested in the present disclosure was derived from Raji cells; endogenous in cells; host or cells: Raji cells
Procedure, shortened: (§1)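 Raji cells were treated for 4 h at 37 °C with compound (from 1 μM, 3-fold, 8 concentrations), then lysed. Lysate activity was read 10 min at 37 °C with Ac-ANW-AMC (β5i) or Suc-LLVY-AMC (β5c) at 345/445 nm. Percent inhibition was relative to DMSO-treated lysate.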

MM.1S cell strain = test: Inhibitory activity of cell strain (CellTiter-Glo); conditions: Homo sapiens, MM1.S, 72 h incubation
Procedure, shortened: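 Cells seeded at 1×10^5 per well in RPMI1640 complete medium for 24 h, then treated 72 h at 37 °C, 5% CO2 with 3-fold dilutions, final 5×10^−7 M down to 2.29×10^−10 M. CellTiter-Glo luminescence; inhibition calculated against DMSO-only cells and medium-only blanks.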

[2] = molecular target: T2, β5i subunit of the 20S proteasome (Homo sapiens, UniProt P20618+P28062); test: Proteasome inhibitory activity, β5i subunit (Raji cells treated with compound, lysed, Ac-ANW-AMC substrate); conditions: proteasome from Raji cells incubated with compound 4 h
T2 construct: The proteasome tested in the present disclosure was derived from Raji cells; endogenous in cells; host or cells: Raji cells
Procedure, shortened: as §1

Row | IC50 [1] | IC50 (MM.1S cell strain) | IC50 [2] | Structure (SMILES)
1 | ≤ 50 nM | ≤ 50 nM | ≤ 50 nM | Cc1ccc(C[C@H](NC(=O)C(C)C(=O)NCc2ccc(Cl)cc2Cl)B(O)O)cc1 (stereo partly drawn) [Example 59, ((1R)-1-(3-((2,4-dichlorobenzyl)amino)-2-methyl-3-oxopropionamido)-2-(p-tolyl)ethyl)boric acid]
2 | ≤ 50 nM | ≤ 50 nM | ≤ 50 nM | COc1cccc(CCNC(=O)C(C)C(=O)N[C@@H](Cc2coc3ccccc23)B(O)O)c1 (stereo partly drawn) [Example 63, ((1R)-2-(benzofuran-3-yl)-1-(3-((3-methoxyphenylethyl)amino)-2-methyl-3-oxopropionamido)ethyl)boric acid]

Reference: patent publication US20250346613A1, “BORIC ACID PROTEASOME INHIBITOR AND USE THEREOF” (ARTIVILA BIOPHARMA, priority 2022, published 2025)
